Measured values from ChEMBL document CHEMBL1201862, “PubChem BioAssay data set” (2004).
Calls of active or inactive are those of the source.

Key:
[1] = control 3'UTR Renilla luciferase suppression, dose response, counter-screen for Shn3 inhibitor project, cell-based, Clone20-Shn3RL, cherry-picked (AID 624133); format: functional
[2] = molecular target: T1, COUP transcription factor 2 (Homo sapiens, UniProt P24468); assay: Luminescence-based cell-based high throughput dose response assay to identify inhibitors of COUP-TFII (NR2F2).; format: functional;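 also: HEK293 cells transiently cotransfected with COUP-TFII expression vector and reporter; luciferase reporter luminescence driven by COUP-TFII from the pX2-168 reporter plasmid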
T1 sequence (P24468 whole entry): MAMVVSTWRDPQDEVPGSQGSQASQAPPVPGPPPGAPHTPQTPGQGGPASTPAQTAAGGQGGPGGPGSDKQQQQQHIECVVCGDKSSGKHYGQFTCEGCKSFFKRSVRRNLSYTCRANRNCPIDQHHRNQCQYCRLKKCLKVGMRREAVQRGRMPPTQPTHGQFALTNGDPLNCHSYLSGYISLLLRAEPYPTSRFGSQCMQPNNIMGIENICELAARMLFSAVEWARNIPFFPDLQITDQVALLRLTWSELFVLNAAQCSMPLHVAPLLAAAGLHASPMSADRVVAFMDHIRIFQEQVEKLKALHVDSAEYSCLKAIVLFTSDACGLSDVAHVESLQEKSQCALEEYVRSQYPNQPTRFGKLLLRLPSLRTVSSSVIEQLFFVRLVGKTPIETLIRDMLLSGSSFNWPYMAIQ

[3] = Shn3 3'UTR reporter inhibitors, dose response, cell-based, Clone20 osteoblasts, firefly luciferase, cherry-picked (AID 624132); format: functional;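 also: firefly luciferase luminescence from reporter carrying the Shn3 3'UTR in osteoblasts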
[4] = HepG2 cell cytotoxicity, dose response, cytotoxicity control for Shn3 inhibitor project, CellTiter-Glo, cherry-picked (AID 624134); format: functional, cell-based
[5] = Fluorescence-based cell-based high throughput dose response assay for inhibitors of the interaction of nucleotide-binding oligomerization domain containing 2 (NOD2) and the receptor-interacting serine-threonine kinase 2 (RIPK2).; format: functional; details: Homo sapiens
[6] = inhibitors of firefly luciferase expression or activity, dose response, H4 neuroglioma cells, luminescence (AID 1990); format: functional, cell-based
Beta Lactamase = Beta Lactamase (Pseudomonas aeruginosa, UniProt Q932Y6); assay: beta-lactamase reporter inhibitor potency, dose response, artefact control for NOD2-RIPK2 interaction inhibitor project, BLA reporter cells, FRET fluorescence (AID 651552); format: functional, cell-based
[7] = Luminescence Cell-Based Dose Response HTS to Identify Inhibitors of 5'UTR Stem-Loop Driven Prion Protein mRNA Translation in H4 Neuroglioblastoma Cells. [Related pubchem assays: 1827 (Project Summary), 1813 (Primary HTS)]; format: functional
[8] = inhibitors of SNCA 5'UTR-driven reporter translation, confirmation, H4 neuroglioma cells, luminescence (AID 1988); format: functional, cell-based
[9] = system: Streptococcus sp. 'group A'; assay: growth inhibition of control SK(-) GAS strain, dose response, counter-screen for streptokinase expression inhibitor project, luminescence, kanamycin, BacTiterGlo, confirmation (AID 1900); format: functional, organism-based
Streptococcus = assay: Group A Streptococcus viability loss, dose response, counter-screen for streptokinase expression inhibitor project, luminescence, BacTiterGlo (AID 1915); format: functional, organism-based;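 also: potency for reduction of bacterial viability or growth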
[10] = NIH-3T3 fibroblast cytotoxicity, dose response, cytotoxicity control, cell-based, fluorescence, Alamar Blue, secondary assay (AID 2327); format: functional;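 also: NIH-3T3 mouse fibroblasts cultured with fluconazole at 8 µg/mL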
[11] = human group III sPLA2 inhibitors, dose response, biochemical, QFRET, IC50 (AID 743457);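 also: green fluorescence rise as the enzyme cleaves BODIPY PC-A2 in liposomes; potency for inhibition of the enzyme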
[12] = C. albicans growth with fluconazole, confirmation, fluorescence, retest (AID 2467); format: functional, cell-based
Paired box protein Pax-8 = Paired box protein Pax-8 (Homo sapiens, UniProt Q06710); assay: inhibitors of PAX8-driven TPO luciferase reporter, dose response, RMG-I cells, cherry-pick (AID 687027); format: functional, cell-based;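 also: luciferase reporter driven by Pax8 target thyroperoxidase promoter measured by SteadyGlo luminescence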
[13] = non-specific cell cytotoxicity, dose response, cytotoxicity control for PAX8 inhibitor project, plate reader, dry powder samples (AID 743021); format: functional, cell-based
[14] = molecular target: T2, Corticotropin-releasing factor receptor 2/Corticotropin-releasing factor-binding protein (Homo sapiens, UniProt P24387+Q13324); assay: activators of CRF receptor 2 with binding protein – uHTS hits, confirmation (AID 602473); format: functional; details: read-out: EC50_Mean
T2 sequence (Q13324 whole entry): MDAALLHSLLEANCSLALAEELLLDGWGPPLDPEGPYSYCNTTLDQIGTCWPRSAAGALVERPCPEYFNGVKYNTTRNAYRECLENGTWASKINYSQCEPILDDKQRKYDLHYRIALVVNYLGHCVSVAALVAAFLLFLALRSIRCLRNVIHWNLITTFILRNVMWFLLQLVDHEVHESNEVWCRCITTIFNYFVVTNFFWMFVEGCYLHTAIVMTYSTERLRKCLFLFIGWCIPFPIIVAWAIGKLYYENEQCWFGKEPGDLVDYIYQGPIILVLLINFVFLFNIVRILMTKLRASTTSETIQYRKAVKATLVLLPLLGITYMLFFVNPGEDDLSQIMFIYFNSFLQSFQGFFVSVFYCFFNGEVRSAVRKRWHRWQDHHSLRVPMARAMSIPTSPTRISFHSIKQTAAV
T2 sequence (P24387 whole entry): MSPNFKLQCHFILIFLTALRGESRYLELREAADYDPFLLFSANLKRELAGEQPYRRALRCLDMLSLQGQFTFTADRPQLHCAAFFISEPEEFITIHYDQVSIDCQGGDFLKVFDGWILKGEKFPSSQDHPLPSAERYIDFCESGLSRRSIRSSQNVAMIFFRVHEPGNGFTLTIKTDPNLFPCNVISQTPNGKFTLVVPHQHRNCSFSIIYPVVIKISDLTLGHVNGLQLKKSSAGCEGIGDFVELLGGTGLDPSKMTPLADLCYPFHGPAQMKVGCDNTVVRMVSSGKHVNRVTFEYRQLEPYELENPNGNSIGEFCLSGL

[15] = molecular target: T2, Corticotropin-releasing factor receptor 2/Corticotropin-releasing factor-binding protein; assay: Dose Response confirmation of uHTS hits for small molecule antagonists of the CRF-binding protein and CRF-R2 receptor complex.; format: functional; details: read-out: IC50_Mean
[16] = molecular target: T3, Polyadenylate-binding protein 1 (Homo sapiens, UniProt P11940); assay: PABP1 MLLE–PAM2 interaction inhibitors, dose response, miRNA deadenylation inhibitor project, biochemical, fluorescence polarization, Cy5-PAM2 peptide, secondary (AID 602260); format: functional; details: read-out: IC50_Mean
Vero = Vero cell cytotoxicity, cytotoxicity control for flavivirus capping enzyme inhibitors (AID 588742); format: functional; details: Chlorocebus sabaeus
Genome polyprotein = Genome polyprotein (dengue virus type 2, UniProt P29990); assay: Dengue-2 NS5 methyltransferase inhibitors, primary screen, biochemical, confirmation dose response (AID 588689); format: functional
[17] = molecular target: T3, Polyadenylate-binding protein 1; assay: PABP1 MLLE–PAM2 binding inhibitor potency, dose response, biochemical, fluorescence polarization, FITC-PAM2 peptide (AID 602259); format: functional; details: read-out: IC50_Mean
[18] = molecular target: T4, Ubiquitin-conjugating enzyme E2 N (Homo sapiens, UniProt P61088); format: functional;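 also: Dose-response confirmation in a TR-FRET assay detecting UBC13-driven polyubiquitin chain formation, inhibition measured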
T4 sequence (P61088 whole entry): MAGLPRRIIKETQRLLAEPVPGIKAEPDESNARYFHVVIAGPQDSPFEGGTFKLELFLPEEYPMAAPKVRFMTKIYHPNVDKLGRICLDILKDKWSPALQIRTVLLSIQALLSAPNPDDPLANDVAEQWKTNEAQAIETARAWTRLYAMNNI

P388/ADR = assay: cells; format: functional; details: Mus musculus
SN12K1 = assay: cells; format: functional; details: Homo sapiens
P388 = assay: cells; format: functional; details: Mus musculus
[19] = A549 cell cytotoxicity, dose response, cytotoxicity control, plate reader, cherry-pick, antagonist series (AID 743412); format: functional, cell-based
Albumin = Albumin (Bos taurus, UniProt P02769); assay: Counterscreen for inhibitors of T-cell receptor (TCR)-CD3 interaction: Fluorescence-based biochemical high throughput dose response assay to identify inhibitors of T-cell receptor (TCR)-CD3 interaction using a TAMRA-labeled BSA probe.; format: functional
cells [20] = format: functional, cell-based
INS1 = assay: beta cell apoptosis inhibitors, cytokine rescue, dose response, luminescence, retest (AID 449756); format: functional, cell-based; details: Rattus norvegicus;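 also: cell death triggered by IL-1 beta plus TNF-alpha plus IFN-gamma mixture; protective hits raise ATP signal compared with cytokine alone wells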
cells [21] = format: functional, cell-based; remark: listed apart in the source
[22] = nonselective inhibitors of cellular cAMP signaling, dose response, counter-screen for MC4R biased antagonist project, cell-based, TR-FRET cAMP detection (AID 602305); format: functional;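 also: U2OS cells stimulated with forskolin near its EC80 as the cAMP inducer; potency is for inhibition of forskolin-stimulated cAMP signaling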
Melanocortin receptor 4 = Melanocortin receptor 4 (Homo sapiens, UniProt P32245); assay: MC4R antagonist potency on cAMP, dose response, cell-based, TR-FRET, biased antagonists (AID 602298); format: functional;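 also: antagonist potency against agonist-stimulated cAMP production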
Melanocortin receptor 4, sequence (P32245 whole entry): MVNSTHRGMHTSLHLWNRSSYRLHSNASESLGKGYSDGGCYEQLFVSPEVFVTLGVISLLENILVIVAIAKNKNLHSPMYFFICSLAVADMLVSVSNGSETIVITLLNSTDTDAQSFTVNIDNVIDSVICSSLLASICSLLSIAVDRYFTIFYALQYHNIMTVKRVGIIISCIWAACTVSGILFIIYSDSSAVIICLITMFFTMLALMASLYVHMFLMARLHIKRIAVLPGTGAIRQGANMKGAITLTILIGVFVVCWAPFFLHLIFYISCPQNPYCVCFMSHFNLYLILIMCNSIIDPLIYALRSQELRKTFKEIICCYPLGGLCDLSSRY

Paired box protein Pax-8, sequence (Q06710 whole entry): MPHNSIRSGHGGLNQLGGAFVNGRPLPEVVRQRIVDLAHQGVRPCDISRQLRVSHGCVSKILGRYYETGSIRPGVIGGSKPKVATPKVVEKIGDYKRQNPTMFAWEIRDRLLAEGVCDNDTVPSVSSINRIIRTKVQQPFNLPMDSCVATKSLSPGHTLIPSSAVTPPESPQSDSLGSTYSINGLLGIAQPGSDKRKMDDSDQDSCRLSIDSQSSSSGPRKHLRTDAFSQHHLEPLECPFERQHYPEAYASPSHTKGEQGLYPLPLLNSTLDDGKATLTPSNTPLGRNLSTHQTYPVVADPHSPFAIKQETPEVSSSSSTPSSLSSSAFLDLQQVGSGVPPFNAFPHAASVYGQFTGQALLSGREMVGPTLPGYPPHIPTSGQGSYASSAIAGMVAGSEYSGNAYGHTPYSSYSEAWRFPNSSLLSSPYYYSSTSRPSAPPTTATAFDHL
Beta Lactamase, sequence (Q932Y6 whole entry): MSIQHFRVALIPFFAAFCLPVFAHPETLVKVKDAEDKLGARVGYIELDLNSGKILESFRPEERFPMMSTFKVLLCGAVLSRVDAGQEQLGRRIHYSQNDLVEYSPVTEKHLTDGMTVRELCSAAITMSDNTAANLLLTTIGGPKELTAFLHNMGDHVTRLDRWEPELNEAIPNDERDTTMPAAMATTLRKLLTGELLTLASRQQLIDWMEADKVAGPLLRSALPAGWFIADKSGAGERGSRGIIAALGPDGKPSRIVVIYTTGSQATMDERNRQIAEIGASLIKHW
T3 sequence (P11940 whole entry): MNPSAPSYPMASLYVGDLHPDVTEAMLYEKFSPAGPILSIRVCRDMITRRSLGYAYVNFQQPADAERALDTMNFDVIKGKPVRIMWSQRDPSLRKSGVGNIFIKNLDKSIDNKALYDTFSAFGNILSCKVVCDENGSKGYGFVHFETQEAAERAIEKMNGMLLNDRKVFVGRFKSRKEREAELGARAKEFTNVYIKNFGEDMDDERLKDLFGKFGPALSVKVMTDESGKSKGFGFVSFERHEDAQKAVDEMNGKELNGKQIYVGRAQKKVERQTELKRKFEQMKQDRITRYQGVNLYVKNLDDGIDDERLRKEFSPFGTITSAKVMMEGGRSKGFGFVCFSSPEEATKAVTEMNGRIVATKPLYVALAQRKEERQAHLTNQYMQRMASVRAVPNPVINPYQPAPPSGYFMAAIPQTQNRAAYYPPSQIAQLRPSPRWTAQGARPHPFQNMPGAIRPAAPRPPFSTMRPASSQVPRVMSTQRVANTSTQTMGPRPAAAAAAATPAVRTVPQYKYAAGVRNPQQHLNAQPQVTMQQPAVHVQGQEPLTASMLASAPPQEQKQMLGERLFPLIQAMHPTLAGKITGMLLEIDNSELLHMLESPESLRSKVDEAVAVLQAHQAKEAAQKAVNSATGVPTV
Genome polyprotein, sequence (P29990 2492-3391 limits assumed): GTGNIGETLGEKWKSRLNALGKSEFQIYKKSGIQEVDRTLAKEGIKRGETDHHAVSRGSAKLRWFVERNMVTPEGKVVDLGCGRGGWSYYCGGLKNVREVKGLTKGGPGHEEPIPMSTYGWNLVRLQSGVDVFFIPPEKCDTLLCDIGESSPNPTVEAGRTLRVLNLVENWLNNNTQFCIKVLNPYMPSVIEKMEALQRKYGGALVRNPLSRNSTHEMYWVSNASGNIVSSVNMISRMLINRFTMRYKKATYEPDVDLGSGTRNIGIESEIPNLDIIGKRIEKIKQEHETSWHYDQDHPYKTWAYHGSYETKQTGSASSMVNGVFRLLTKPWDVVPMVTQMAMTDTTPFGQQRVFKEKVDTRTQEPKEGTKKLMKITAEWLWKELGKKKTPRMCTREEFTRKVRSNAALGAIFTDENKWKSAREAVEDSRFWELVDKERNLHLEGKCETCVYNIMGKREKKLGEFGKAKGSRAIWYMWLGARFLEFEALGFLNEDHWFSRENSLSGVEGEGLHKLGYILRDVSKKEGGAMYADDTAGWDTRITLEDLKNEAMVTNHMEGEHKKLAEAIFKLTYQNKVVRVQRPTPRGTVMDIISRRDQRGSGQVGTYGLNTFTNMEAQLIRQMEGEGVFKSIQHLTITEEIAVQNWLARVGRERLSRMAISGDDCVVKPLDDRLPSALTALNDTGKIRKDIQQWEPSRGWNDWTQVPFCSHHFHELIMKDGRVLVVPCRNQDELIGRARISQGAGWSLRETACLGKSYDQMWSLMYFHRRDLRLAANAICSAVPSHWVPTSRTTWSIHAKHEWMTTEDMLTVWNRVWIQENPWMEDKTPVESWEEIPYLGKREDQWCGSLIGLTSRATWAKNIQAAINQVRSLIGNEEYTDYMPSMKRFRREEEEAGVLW
Albumin, sequence (P02769 whole entry): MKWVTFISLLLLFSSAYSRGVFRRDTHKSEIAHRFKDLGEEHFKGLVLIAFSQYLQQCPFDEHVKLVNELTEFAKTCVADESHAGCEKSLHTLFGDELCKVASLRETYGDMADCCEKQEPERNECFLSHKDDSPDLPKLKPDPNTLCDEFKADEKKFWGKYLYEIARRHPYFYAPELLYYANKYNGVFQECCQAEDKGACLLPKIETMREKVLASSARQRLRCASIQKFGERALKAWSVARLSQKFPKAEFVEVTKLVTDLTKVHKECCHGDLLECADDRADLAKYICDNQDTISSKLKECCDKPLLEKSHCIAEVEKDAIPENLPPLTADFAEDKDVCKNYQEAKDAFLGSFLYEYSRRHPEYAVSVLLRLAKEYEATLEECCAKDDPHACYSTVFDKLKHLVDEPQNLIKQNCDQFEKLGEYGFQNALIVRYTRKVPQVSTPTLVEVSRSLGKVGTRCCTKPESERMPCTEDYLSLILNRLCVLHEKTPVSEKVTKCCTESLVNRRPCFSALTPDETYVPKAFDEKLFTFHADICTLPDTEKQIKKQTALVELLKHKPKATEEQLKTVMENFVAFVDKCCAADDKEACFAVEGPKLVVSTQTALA

COc1ccc(NC(=O)COc2ccc(N(C)S(=O)(=O)c3ccc(Cl)cc3)cc2)cc1OC
AC50 [1]: 1.81 µM (active) | IC50 [2]: 6.67 µM (active) | AC50 [3]: 1.35 µM (active) | AC50 [4]: 32.1 µM (active)

Cc1cccc(CS(=O)(=O)c2ncc(Cl)c(C(=O)NCc3ccccc3)n2)c1
IC50 [5]: 2.77 µM (active) | EC50 [6]: > 120 µM (not active) | IC50 (Beta Lactamase): 12.3 µM (inactive) | AC50 [1]: 14 µM (active) | EC50 [7]: 26.1 µM (active) | AC50 [3]: 2.94 µM (active) | AC50 [4]: 18.8 µM (active) | EC50 [8]: 12 µM (active)

S=C(Nc1ccc(Cl)cc1)c1nc2ccccc2[nH]1
EC50 [9]: 1.26 µM (active) | EC50 (Streptococcus): 3.17 µM (active) | EC50 [10]: 19 µM (active) | IC50 [11]: > 122 µM (inactive) | EC50 [12]: > 38 µM (not active)

Cc1nc(-c2ccc(NC(=O)c3ccco3)cc2)cs1
AC50 (Paired box protein Pax-8): 8.26 µM (active) | AC50 [13]: 17.1 µM (active)

O=C(Cn1ncc2c3ccccc3nc-2c1O)NCC1CCN(Cc2ccccc2F)CC1
EC50 [14]: > 53 µM (inactive) | IC50 [15]: > 47.1 µM (inactive)

CCCC(=O)Nc1nnc(Sc2ccc(N(C)C)cc2)s1
EC50 [14]: > 53 µM (inactive) | IC50 [15]: > 47.1 µM (inactive)

O=C1C(Cl)=CC(=Nc2ccc(O)cc2)C=C1Cl
IC50 [16]: > 66 µM (inactive) | CC50 (Vero): 37.7 µM (active) | IC50 (Genome polyprotein): 7.02 µM (active) | IC50 [17]: > 66 µM (inactive)

COc1cccc(/C=C2/Sc3ccc(C(=O)NCCN4CCCCCC4)cc3NC2=O)c1
AC50 (Paired box protein Pax-8): 10.1 µM (active) | IC50 [18]: > 20 µM (inactive) | AC50 [13]: 36 µM (active)

Cc1ccc(-c2ccc(=O)n(Cc3cc(C)ccc3C)n2)cc1
EC50 [14]: > 53 µM (inactive) | IC50 [15]: > 47.1 µM (inactive)

S=P1(N2CCCCC2)Oc2ccc3ccccc3c2-c2c(ccc3ccccc23)O1
GI50 (P388/ADR): > 100 µM (inactive) | GI50 (SN12K1): > 61.8 µM (inactive) | GI50 (P388): 48.4 µM (inactive)

C(=C/c1nc2ccccc2o1)/c1ccc2c(c1)OCO2
GI50 (P388/ADR): 3.99 µM (inactive) | GI50 (SN12K1): 5.62 µM (inactive) | GI50 (P388): 3.52 µM (inactive)

COc1ccc(OCC(C)(C)O)cc1
GI50 (P388/ADR): 1.31 µM (inactive) | GI50 (SN12K1): > 100 µM (inactive) | GI50 (P388): 38.2 µM (inactive)

O=S1(=O)CS(=O)(=O)OCCO1
GI50 (P388/ADR): 7.36 µM (inactive) | GI50 (SN12K1): 28.6 µM (inactive) | GI50 (P388): 10.8 µM (inactive)

Cc1ccc(N2Cc3c(ccc4ccccc34)OP2(=O)Oc2ccc(Cl)c(C)c2)cc1 (stereo unspecified)
GI50 (P388/ADR): 7.45 µM (inactive) | GI50 (SN12K1): > 77.8 µM (inactive) | GI50 (P388): 4.75 µM (inactive)

CC(=O)N1CCc2cc(S(=O)(=O)C(C)CC(=O)NCc3ccco3)ccc21 (stereo unspecified)
AC50 [19]: > 52 µM (inactive)

Cc1cc(Br)cc(/C=N/NC(=O)c2ccc3c(c2)OCO3)c1O
IC50 (Albumin): > 94.1 µM (inactive) | EC50 [9]: 1.22 µM (active) | EC50 (cells [20]): 96.8 µM (active) | EC50 (Streptococcus): 3.25 µM (active) | AC50 (INS1): 1.32 µM (active) | IC50 [11]: > 122 µM (inactive) | EC50 (cells [21]): 75.7 µM (active)

CC(OC(=O)c1ccc(S(C)(=O)=O)c([N+](=O)[O-])c1)C(=O)NC1C2CC3CC(C2)CC1C3 (stereo unspecified)
IC50 [5]: 0.8 µM (active) | AC50 (Paired box protein Pax-8): 5.88 µM (active) | IC50 (Beta Lactamase): 49.8 µM (inactive) | IC50 [22]: > 64.6 µM (inactive) | AC50 [1]: 7.51 µM (active) | IC50 (Melanocortin receptor 4): > 64.6 µM (inactive) | AC50 [3]: 1.4 µM (active) | AC50 [4]: 8.28 µM (active) | AC50 [13]: 22.6 µM (active)

Nc1ccc(S(=O)(=O)Nc2ccc(Cl)nn2)cc1 [SULFACHLORPYRIDAZINE]
EC50 [14]: > 53 µM (inactive) | IC50 [15]: > 47.1 µM (inactive)
